Laboratory results taken from publication PMC12165799, “Antimicrobial peptide developed with machine learning sequence optimization targets drug resistant Staphylococcus aureus in mice” (The Journal of Clinical Investigation, 2025).
Read-outs that look alike come from different tables or passages of the source.

Tests used:
HepG2 cells = assay: Mammalian cell cytotoxicity assay
Description: 410 the HepG2 cells at 37°C in 5% CO2 in Dulbecco’s Modified Eagle Medium (DMEM) (Gibco, MA,
We harvested and resuspended cells in fresh DMEM

[1] = test system: S. aureus MW2 established biofilm; assay: Fluorescence microscopy of established biofilms, live/dead staining; format: cell-based, Staphylococcus aureus; settings: 32 μg/mL, SYTO9 / propidium iodide
Description: 369 aureus MW2 (adjusted to 1 × 10^6 CFU/ml) in TSB medium (supplemented with 0.2% glucose)
370 from overnight grown cultures. We added 100 µl of bacterial culture to flat-bottomed 96-well
371 polystyrene microtiter plates (Cat no. 3595, Corning, NY, USA). We then incubated the plates at
372 37°C for 24 hours in static conditions to allow biofilm formation. After incubation, we carefully
373 pipetted out the TSB medium and washed the wells with PBS (Gibco, MD, USA) to remove
374 loosely attached planktonic cells. We treated the established biofilms in each well with 10 µl of
375 serially diluted 10× peptide solution, followed by the addition of 90 μl TSB medium
376 (supplemented with 0.2% glucose). We incubated the plates for another 24 h at 37°C before
377 processing biomass and live-cell contents. We calculated the concentration of peptide that disrupts
378 50% of established biofilms (MBEC50).
380 Fluorescence microscopy of CIT-8-treated S. aureus MW2 established biofilms
381 We prepared exponential phase cultures of S. aureus MW2 and adjusted the bacterial count
382 to 1 × 10^6 CFU/ml in fresh TSB medium. To establish biofilms, we added 200 µl of the bacterial
383 culture to the chambers of Millicell EZ Slides (Millipore Sigma, MA, USA) and maintained them
384 at 37°C for 24 hours under static conditions (8). After incubation, we carefully removed the TSB […]
We calculated the percent hemolysis, […]

S. aureus MW2 membrane = assay: SYTOX-based cell membrane permeability assay; set-up: species or system Staphylococcus aureus; settings: S. aureus MW2, 1 hour; CIT-8 4–32 μg/mL
Description: 484 min at room temperature in the dark based on a previously established protocol (8). We added 90
485 µl of the dye/bacteria mixture to 10 μl of serially diluted 10× peptide concentration in black, 96-
486 well plates (Cat. no. 3904, Corning, NY, USA) and incubated the plates for 1 hour at room
487 temperature. We measured the fluorescence with excitation and emission wavelengths of 485 nm
488 and 525 nm, respectively in endpoint assay mode using a SpectraMax i3x (Molecular Devices,
489 CA, USA) fluorescence reader.
490 Propidium iodide-based membrane permeability
491 We used a propidium iodide (Thermo Fisher Scientific, MA, USA) fluorescence-based
492 bacterial permeation assay to establish membrane-oriented interactions with the designed peptides
493 based on a previously established protocol (8). We prepared exponential phase S. aureus MW2
494 bacteria and diluted to OD600 = 0.4 in PBS. We added PI dye (final concentration = 2 µM) to the
495 bacteria in 1:10 serial dilutions in black, 96-well plates (Cat. no. 3904, Corning, NY, USA) and
496 incubated the plates for 1 hour at room temperature. We then measured the fluorescence with an
497 excitation wavelength of 584 nm and an emission wavelength of 620 nm in endpoint assay mode
498 using a SpectraMax i3x (Molecular Devices, CA, USA) fluorescence reader.
501 To determine the ATP leakage potential of the peptides, we employed a luciferase-based […]

[2] = test system: S. aureus JE2 and transposon mutants; format: cell-based, Staphylococcus aureus
Description: 305 Minimal inhibitory concentration (MIC) assay
We made serial dilutions of 10×
We determined the MIC using OD600
Accordingly, we added 150 mM NaCl,
319 established protocol (5).
542 Use of S. aureus transposon mutants
543 We used S. aureus transposon mutants from the Nebraska Transposon Mutant Library
544 (NTML)(21). The library has a collection of 1,952 strains, each containing a single mutation within
545 a nonessential gene of USA300, an epidemic community-associated MRSA (CA-MRSA) isolate
546 (21). We selected a transposon insertion mutant from the NTML library in the fmtc gene, which
547 catalyzes the transfer of a lysyl group from L-lysyl-tRNA to membrane-bound
548 phosphatidylglycerol (PG) to produce lysylphosphatidylglycerol (LPG) (11). LPG imparts a less-
549 negative charge to the overall membrane potential and thus contributes to bacterial virulence by
550 contributing a resistance mechanism against cationic AMPs (11).

[3] = HPLC retention time on C18 reverse-phase column; format: physicochemical
Source text: Table 1 Physical parameters and minimal inhibitory concentrations of citropin 1.1-derived peptides against S. aureus MW2 | column: rT^D (min)

H-GLFKVIKKLLKVI-NH2 [CIT-8]
HepG2 cell viability, Sup. Fig. 4B (HepG2 cells; 4 μg/ml, replicate 1): 110.665 | HepG2 cell viability, Sup. Fig. 4B (HepG2 cells; 4 μg/ml, replicate 2): 94.3717 | HepG2 cell viability, Sup. Fig. 4B (HepG2 cells; 4 μg/ml, replicate 3): 107.525 | HepG2 cell viability, Sup. Fig. 4B (HepG2 cells; 8 μg/ml, replicate 1): 104.83 | HepG2 cell viability, Sup. Fig. 4B (HepG2 cells; 8 μg/ml, replicate 2): 93.4852 | HepG2 cell viability, Sup. Fig. 4B (HepG2 cells; 8 μg/ml, replicate 3): 105.572 | HepG2 cell viability, Sup. Fig. 4B (HepG2 cells; 16 μg/ml, replicate 1): 122.471 | HepG2 cell viability, Sup. Fig. 4B (HepG2 cells; 16 μg/ml, replicate 2): 104.62 | HepG2 cell viability, Sup. Fig. 4B (HepG2 cells; 16 μg/ml, replicate 3): 109.473 | HepG2 cell viability, Sup. Fig. 4B (HepG2 cells; 32 μg/ml, replicate 1): 107.545 | HepG2 cell viability, Sup. Fig. 4B (HepG2 cells; 32 μg/ml, replicate 2): 100.768 | HepG2 cell viability, Sup. Fig. 4B (HepG2 cells; 32 μg/ml, replicate 3): 106.994 | HepG2 cell viability, Sup. Fig. 4B (HepG2 cells; 64 μg/ml, replicate 1): 70.5897 | HepG2 cell viability, Sup. Fig. 4B (HepG2 cells; 64 μg/ml, replicate 2): 64.1784 | HepG2 cell viability, Sup. Fig. 4B (HepG2 cells; 64 μg/ml, replicate 3): 64.2134 | HepG2 cell viability, Sup. Fig. 4B (HepG2 cells; 128 μg/ml, replicate 1): 32.858 | HepG2 cell viability, Sup. Fig. 4B (HepG2 cells; 128 μg/ml, replicate 2): 28.9912 | HepG2 cell viability, Sup. Fig. 4B (HepG2 cells; 128 μg/ml, replicate 3): 25.6954 | LD50 (concentration needed to kill 50% of HEPG2 cells) (HepG2 cells; human liver-derived HEPG2 cells): 96 µg/mL | Live/dead staining of established biofilm [1]: high proportion of dead cells | SYTOX Green fluorescence (membrane permeation) (S. aureus MW2 membrane): significantly increased fluorescence levels | Reduction in MIC against mprF transposon mutant compared with JE2 [2]: 2 fold | MIC ([2]; JE2, Supplemental Table 6): 4 µg/mL | MIC for pdx-transposon mutant versus parent strain JE2 ([2]; also with 100 μM supplemental external vitamin B6): same MIC | MIC ([2]; mprF transposon mutant (NTML)): 2 µg/mL | rT (HPLC retention time) [3]: 22.465 min
